Data reported in patent US10278942B2 (PELOTON THERAPEUTICS, INC., priority 2015, dated 2019).
Where two headings read alike, the source gives them in different places.

Target: T1, HIF-2α HIS TAG-PASB Domain (Homo sapiens, UniProt Q99814)
T1 construct: 100 nM HIF-2α HIS TAG-PASB Domain
Test: HIF-2α Scintillation Proximity Assay (SPA)
Assay type: binding
Experimental: The total assay volume was about 100 μL in the following configuration: 2 μL compound in 100% DMSO, 88 μL buffer with protein and probe and 10 μL of SPA beads. […] The percent inhibition was determined and IC50 values were calculated using the Dotmatics system based on the following equation: % inhibition=[(high control−sample)/(high control−low control)]×100.

[1] = read-out: Scintillation Proximity Assay IC50
[2] = Scintillation Proximity Assay IC50 (nM)

T1 sequence (Q99814 240-350 limits assumed): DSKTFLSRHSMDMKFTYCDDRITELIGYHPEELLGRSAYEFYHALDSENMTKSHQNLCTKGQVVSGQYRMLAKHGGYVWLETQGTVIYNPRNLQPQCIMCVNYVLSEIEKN

Row | IC50 [1] | Structure (SMILES) | IC50 [2]
1 | > 1000 nM | CC(C)(C)OC(=O)N1CC(Oc2ccc(S(=O)(=O)C(F)(F)F)c3c2CC(F)(F)[C@H]3O)C1 [Compound 791] | 
2 | < 50 nM | CS(=O)(=NC#N)c1ccc(Oc2cncc(C#N)c2)c2c1[C@H](O)C(F)(F)[C@@H]2F (some centres unmarked) [Compound 319] | 
3 | > 1000 nM | CS(=O)(=O)c1ccc(C(F)(F)CO)c2c1C(O)C(F)(F)C2 (centres unmarked) [Compound 555] | 
4 | > 1000 nM | O=S(=O)(CF)c1ccc(Oc2cccc3sccc23)c2c1C(O)CC2 (centres unmarked) [Compound 239] | 
5 | > 1000 nM | O=S(=O)(c1ccc(Oc2cc(F)cc(Cl)c2)c(CCO)c1)C(F)(F)F [Compound 127] | 
6 | > 1000 nM | CS(=O)(=O)c1ccc(Nc2cncc(Cl)c2)c2c1C(O)CC2 (centres unmarked) [Compound 499] | 
7 | > 1000 nM | N#Cc1cc(F)cc(Oc2ccc(S(=O)(=O)C3CCC3)c3c2CCC3O)c1 (centres unmarked) [Compound 208] | 
8 | > 1000 nM | O=S(=O)(c1ccc(Oc2cc(F)cc(Cl)c2)c(Br)c1CNCCO)C(F)(F)F [Compound 108] | 
9 | < 50 nM | CS(=O)(=O)c1ccc(Oc2cncc(Br)c2)c2c1[C@H](O)[C@H](F)[C@@H]2F [Compound 328] | 
10 | > 1000 nM | CC(Oc1ccc(S(=O)(=O)C(F)(F)F)c2c1CC(F)(F)C2O)C(=O)N(C)C (centres unmarked) [Compound 647] | 
11 | > 1000 nM | O=S(=O)(c1ccc(Oc2cccn3ccnc23)c2c1C(O)C(F)(F)C2)C(F)(F)F (centres unmarked) [Compound 246] | 
12 | 50 to 249 nM | N#Cc1cc(F)cc(Oc2ccc(S(=O)(=O)C(F)(F)F)c3c2CC(F)C3N)c1 (centres unmarked) [Compound 265] | 
13 | 250 to 1000 nM | C/C(=N\O)c1c(S(=O)(=O)C(F)(F)F)ccc(Oc2cc(F)cc(Cl)c2)c1Br [Compound 106] | 
14 | > 1000 nM | CCCc1ccc(S(=O)(=O)C(F)(F)F)c2c1CCC2O (centres unmarked) [Compound 515] | 
15 | > 1000 nM | CCS(=O)(=O)c1ccc(Oc2cc(F)cc(C#N)c2)c2c1C(O)CC2 (centres unmarked) [Compound 205] | 
16 | < 50 nM | N#Cc1cc(F)cc(Oc2ccc(S(=O)(=O)C(F)(F)F)c(Cl)c2C#N)c1 [Compound 29] | 
17 | > 1000 nM | OC1c2c(I)cc(I)c(OCC(F)F)c2CC1F (centres unmarked) [Compound 667] | 
18 | > 1000 nM | O=S(=O)(c1ccc(O[C@@H]2CCCc3cn[nH]c32)c2c1[C@H](O)C(F)(F)C2)C(F)(F)F [Compound 729] | 
19 | > 1000 nM | COC(=O)c1c([S+]([O-])C(F)F)ccc(Oc2cc(F)cc(Cl)c2)c1Br (centres unmarked) [Compound 82] | 
20 | > 1000 nM | O=S(=O)(c1ccc(Oc2cc(F)cc(Cl)c2)c(CO)c1CO)C(F)F [Compound 87] | 
21 | > 1000 nM | COc1cncc(Oc2ccc3c(c2Br)[C@@H](O)C(F)(F)S3(=O)=O)c1 [Compound 429] | 
22 | > 1000 nM | CS(=O)(=O)c1ccc(O[C@H]2C[C@H](O)C2)c2c1[C@H](O)C(F)(F)[C@@H]2F [Compound 738] | 
23 | > 1000 nM | CO[C@H]1c2c(S(C)(=O)=O)ccc(Oc3cc(F)cc(C#N)c3)c2CC1(F)F [Compound 210] | 
24 | > 1000 nM | CC(=O)NCCOc1ccc(S(=O)(=O)C(F)(F)F)c2c1CC(F)(F)C2O (centres unmarked) [Compound 636] | 
25 | > 1000 nM | OC1c2cccc(OCC(F)F)c2CC1(F)F (centres unmarked) [Compound 651] | 
26 | > 1000 nM | CC1(C)C=C(c2ccc(S(=O)(=O)C(F)(F)F)c3c2CC(F)(F)[C@H]3O)C(=O)CC1 [Compound 541] | 

Row | IC50 [1] | Structure (SMILES) | IC50 [2]
27 | 250 to 1000 nM | CN=S(=O)(c1ccc(Oc2cc(F)cc(Cl)c2)c(Br)c1)C(F)F (centres unmarked) [Compound 70] | 
28 | > 1000 nM | CS(=O)(=O)c1ccc(C(F)(F)CO)c2c1[C@H](O)C(F)(F)C2 [Compound 556] | 
29 | > 1000 nM | Cc1c(Oc2cc(F)cc(C#N)c2)ccc(S(=O)(=O)C(F)(F)F)c1/C=C/C(=O)NCc1ccccc1 [Compound 149] | 
30 | > 1000 nM | O=S(=O)(c1ccc(-c2ccccc2O)c2c1[C@H](O)C(F)(F)C2)C(F)(F)F [Compound 564] | 
31 | > 1000 nM | CS(=O)(=NC#N)c1ccc(Oc2cncc(C#N)c2)c2c1[C@@H](O)C(F)(F)[C@@H]2F (some centres unmarked) [Compound 320] | 
32 | < 50 nM | N#Cc1cncc(Oc2ccc(S(=O)(=O)CF)c3c2[C@@H](F)C(F)(F)[C@H]3O)c1 [Compound 344] | 
33 | > 1000 nM | O=S(=O)(c1ccc(Sc2cc(F)cc(Cl)c2)c2c1[C@H](O)CC2)C(F)F [Compound 493, (R)-4-((3-chloro-5-fluorophenyl)thio)-7-((difluoromethyl)sulfonyl)-2,3-dihydro-1H-inden-1-ol] | 
34 |  | O=S1(=O)CCC(O)c2c1ccc(Oc1cc(F)cc(F)c1)c2C(F)F (centres unmarked) [Compound 402] | > 1000 nM
35 | > 1000 nM | O=S1(=O)C[C@H](O)c2c1ccc(Oc1cc(F)cc(F)c1)c2Br [Compound 413] | 
36 | > 1000 nM | CS(=O)(=O)c1ccc(Oc2cncc(Cl)c2)c2c1[C@H](O)C(F)(F)[C@H]2F [Compound 332] | 
37 | > 1000 nM | O=S(=O)(c1ccc(OC2CCc3ncccc32)c2c1[C@H](O)C(F)(F)C2)C(F)(F)F (some centres unmarked) [Compound 733] | 
38 | > 1000 nM | Cc1cc(C#N)cc(Oc2ccc3c(c2C(F)F)C(=O)C(F)(F)S3(=O)=O)c1 [Compound 391] | 
39 | > 1000 nM | CS(=O)(=O)c1ccc(Nc2ccc(F)cc2)c2c1C(O)C(F)(F)C2 (centres unmarked) [Compound 501] | 
40 | > 1000 nM | OC1CCc2c(OCC(F)F)ccc(C(F)(F)F)c21 (centres unmarked) [Compound 662] | 
41 | > 1000 nM | NC(=O)COc1ccc(S(=O)(=O)C(F)(F)F)c2c1CC(F)(F)C2O (centres unmarked) [Compound 640] | 
42 | 250 to 1000 nM | O=S(=O)(c1ccc(Oc2cc(F)cc(Cl)c2)c(Cl)c1CNC1CCOCC1)C(F)F [Compound 48] | 
43 | > 1000 nM | CS(=O)(=O)c1ccc(Oc2cncc(C#N)c2)c2c1[C@H](O)C(F)(F)[C@H]2F [Compound 343] | 
44 | > 1000 nM | CC1(COc2ccc(S(=O)(=O)C(F)(F)F)c3c2CCC3O)COC1 (centres unmarked) [Compound 621] | 
45 | > 1000 nM | CS(=O)(=O)c1ccc(Oc2cc(F)cc(Cl)c2)c(C#N)c1 [Compound 139] | 
46 | > 1000 nM | O=S(=O)(c1ccc(OCCCO)c2c1C(O)CC2)C(F)(F)F (centres unmarked) [Compound 611] | 
47 | < 50 nM | CS(=O)(=O)c1ccc(Oc2ccc(F)c(C#N)c2)c2c1[C@H](O)C(F)(F)[C@@H]2F [Compound 327] | 
48 | > 1000 nM | N=S(=O)(c1ccc(Oc2cc(F)cc(Cl)c2)c(Br)c1)C(F)F (centres unmarked) [Compound 69] | 
49 | 250 to 1000 nM | Cc1cc(Oc2ccc(S(=O)(=O)C(F)F)c3c2CC(F)(F)C3=O)ccc1F [Compound 197] | 
50 | > 1000 nM | CC(=O)c1c(S(=O)(=O)C(F)(F)F)ccc(Oc2cc(F)cc(C#N)c2)c1C#N [Compound 79] | 
51 | > 1000 nM | CC(C)(C)OC(=O)N[C@H]1C[C@@H](O)c2c(S(=O)(=O)C(F)(F)F)ccc(Oc3cc(F)cc(C#N)c3)c21 [Compound 278] | 
52 | > 1000 nM | CC1(C)C(O)c2c(ccc(Oc3cc(F)cc(Cl)c3)c2C#N)S1(=O)=O (centres unmarked) [Compound 408] | 

Row | IC50 [1] | Structure (SMILES) | IC50 [2]
53 | > 1000 nM | O=C(O)Cc1ccc(S(=O)(=O)C(F)(F)F)c2c1CC[C@H]2O [Compound 524, (R)-2-(1-hydroxy-7-((trifluoromethyl)sulfonyl)-2,3-dihydro-1H-inden-4-yl)acetic acid] | 
54 | > 1000 nM | O=S(=O)(c1ccc(CC(O)CO)c2c1C(O)C(F)(F)C2)C(F)(F)F (centres unmarked) [Compound 521, 3-(2,2-difluoro-1-hydroxy-7-((trifluoromethyl)sulfonyl)-2,3-dihydro-1H-inden-4-yl)propane-1,2-diol] | 
55 | > 1000 nM | O=S(=O)(c1ccc(OC2CCNCC2)c2c1C(O)CC2)C(F)(F)F (centres unmarked) [Compound 606] | 
56 | > 1000 nM | Cc1ccc(Cl)cc1Oc1ccc(S(=O)(=O)C(F)(F)F)cc1Br [Compound 174] | 
57 | > 1000 nM | Fc1cc(Cl)cc(Oc2ccc(C(F)(F)F)c(Cl)c2Br)c1 [Compound 97] | 
58 | > 1000 nM | O=S1(=O)CCc2c1ccc(Oc1cc(F)cc(Cl)c1)c2Br [Compound 350] | 
59 | > 1000 nM | O=S(=O)(c1ccc(Oc2cc(F)cc(Cl)c2)c(Cl)c1Cn1ccnc1)C(F)F [Compound 45] | 
60 | > 1000 nM | CNC(=O)COc1ccc(S(=O)(=O)C(F)(F)F)c2c1CC(F)(F)C2O (centres unmarked) [Compound 638] | 
61 | > 1000 nM | N#Cc1cc(Oc2ccc(S(=O)(=O)C(F)(F)F)c3c2CCC3O)ccc1F (centres unmarked) [Compound 216] | 
62 | > 1000 nM | N#CN=S(=O)(CF)c1ccc(Oc2cc(F)cc(C#N)c2)c2c1[C@H](O)CC2 (some centres unmarked) [Compound 282] | 
63 | > 1000 nM | COc1ccc(-c2cn[nH]c2)c2c1CC(F)(F)C2O (centres unmarked) [Compound 680] | 
64 |  | O=S(=O)(c1ccc(Oc2cc(F)cc(Cl)c2)c(Br)c1)C(F)(F)F [Compound 116] | 50 to 249 nM
65 | > 1000 nM | C=CCC1(O)c2c(S(=O)(=O)C(F)F)ccc(Oc3cc(F)cc(F)c3)c2CC1(F)F (centres unmarked) [Compound 12] | 
66 | > 1000 nM | O=S(=O)(c1ccc(Oc2ccc3[nH]ncc3c2)c2c1C(O)C(F)(F)C2)C(F)(F)F (centres unmarked) [Compound 238] | 
67 | 50 to 249 nM | N=S1(=O)c2ccc(Oc3cc(F)cc(F)c3)c(Br)c2C(O)C1(F)F (centres unmarked) [Compound 378] | 
68 | > 1000 nM | Cc1cc(C)cc(Oc2ccc(S(=O)(=O)C(F)(F)F)cc2Br)c1 [Compound 173] | 
69 | > 1000 nM | CC(=O)N1CCC(Oc2ccc(S(=O)(=O)C(F)(F)F)c3c2CC(F)(F)C3O)C1 (centres unmarked) [Compound 629] | 
70 | > 1000 nM | N#CN=S(=O)(c1ccc(Oc2cc(F)cc(C#N)c2)c2c1[C@H](O)[C@H](F)C2)C(F)F (some centres unmarked) [Compound 297] | 
71 | > 1000 nM | O[C@H]1c2c(OCC(F)F)ccc(C(F)(F)F)c2[C@H](F)C1(F)F [Compound 690] | 
72 | > 1000 nM | NC1CS(=O)(=O)c2ccc(Oc3cc(F)cc(F)c3)c(C(F)F)c21 (centres unmarked) [Compound 367] | 
73 | > 1000 nM | O=C1CS(=O)(=O)c2ccc(Oc3cc(F)cc(F)c3)cc21 [Compound 417] | 
74 | > 1000 nM | OC1c2c(I)cc(I)c(OCC(F)F)c2CC1(F)F (centres unmarked) [Compound 666] | 
75 | > 1000 nM | Fc1cc(F)cc(Oc2ncc(Br)c3c2CCC3)c1 [Compound 469, 4-bromo-1-(3,5-difluorophenoxy)-6,7-dihydro-5H-cyclopenta[c]pyridine] | 
76 | > 1000 nM | CNCc1c(S(=O)(=O)C(F)(F)F)ccc(Oc2cc(F)cc(Cl)c2)c1Br [Compound 109] | 

Row | Structure (SMILES) | IC50 [1] | IC50 [2]
77 | NCC1(O)CCc2c(OCC(F)F)ccc(C(F)(F)F)c21 (centres unmarked) [Compound 705] | > 1000 nM | 
